Assay results from PubChem BioAssay AID488870 (Broad Institute, 2010).
Activity calls are given as the source filed them.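 How the source made its calls: active means a drop in nitrite signal whose fitted half-maximal concentration is at most ten times the top tested dose; inconclusive means flat fit with 30 to 70% inhibition, or poor curve fit; inactive means the rest.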

Assay: inhibitors of cytokine-induced nitrite release, dose response, cell-based, Griess absorbance, INS-1E, dry powder, set 3 (AID 488870)
Conditions: INS-1E cytokine-induced nitrite, Griess absorbance, 48 h; at 19.5 µM (top of the series)

SMILES	activity change, negative = inhibition
C[C@@H]1CN([C@@H](C)CO)C(=O)c2cccc(NC(=O)Nc3cccc4ccccc34)c2O[C@H]1CN(C)C(=O)Nc1ccc(F)cc1	-13.6% (inactive)
COc1ccc(S(=O)(=O)N(C)C[C@H]2Oc3c(NC(=O)Nc4cccc5ccccc45)cccc3C(=O)N([C@@H](C)CO)C[C@@H]2C)cc1	-9.04% (inactive)
COc1ccc(S(=O)(=O)Nc2cccc3c2O[C@@H](CN(C)S(=O)(=O)c2ccc(OC)cc2)[C@H](C)CN([C@@H](C)CO)C3=O)cc1	-10.4% (inactive)
C[C@@H]1CN([C@@H](C)CO)C(=O)c2cccc(NC(=O)Nc3cccc4ccccc34)c2O[C@H]1CN(C)C(=O)Nc1ccccc1	-16.1% (inactive)
COc1ccc(S(=O)(=O)N(C)C[C@@H]2Oc3c(NC(=O)Nc4ccc(F)cc4)cccc3C(=O)N([C@@H](C)CO)C[C@H]2C)cc1	-7.65% (inactive)
C[C@@H]1CN([C@@H](C)CO)C(=O)c2cccc(NS(=O)(=O)c3ccccc3)c2O[C@H]1CN(C)Cc1ccc(C(F)(F)F)cc1	-12.5% (inactive)
COc1ccc(S(=O)(=O)N(C)C[C@@H]2Oc3c(NS(=O)(=O)c4ccc(F)cc4)cccc3C(=O)N([C@@H](C)CO)C[C@H]2C)cc1	9.8% (inactive)
COc1ccc(S(=O)(=O)N(C)C[C@@H]2Oc3c(NC(=O)c4cnccn4)cccc3C(=O)N([C@@H](C)CO)C[C@H]2C)cc1	-9.05% (inactive)
C[C@@H]1CN([C@@H](C)CO)C(=O)c2cccc(NC(=O)Nc3cccc4ccccc34)c2O[C@H]1CN(C)S(=O)(=O)c1ccccc1	-19.1% (inactive)
COc1ccc(S(=O)(=O)N(C)C[C@@H]2Oc3c(NC(=O)Nc4ccc(C(F)(F)F)cc4)cccc3C(=O)N([C@@H](C)CO)C[C@H]2C)cc1	-18.3% (inactive)
C[C@@H]1CN([C@@H](C)CO)C(=O)c2cccc(NC(=O)Nc3ccccc3)c2O[C@H]1CN(C)S(=O)(=O)c1ccc(Cl)cc1	-8% (inactive)
COc1ccc(S(=O)(=O)N(C)C[C@@H]2Oc3c(NC(=O)Nc4cccc5ccccc45)cccc3C(=O)N([C@@H](C)CO)C[C@H]2C)cc1OC	-18.5% (inactive)
C[C@@H]1CN([C@@H](C)CO)C(=O)c2cccc(NC(=O)Nc3cccc4ccccc34)c2O[C@H]1CN(C)S(=O)(=O)c1cn(C)cn1	-10.7% (inactive)
COc1ccc(S(=O)(=O)N(C)C[C@@H]2Oc3c(NC(=O)Nc4ccccc4)cccc3C(=O)N([C@H](C)CO)C[C@H]2C)cc1	-11% (inactive)
COc1ccc(S(=O)(=O)N(C)C[C@@H]2Oc3c(NS(=O)(=O)c4ccccc4)cccc3C(=O)N([C@@H](C)CO)C[C@H]2C)cc1	2.87% (inactive)
C[C@@H]1CN([C@@H](C)CO)C(=O)c2cccc(NC(=O)Nc3cccc4ccccc34)c2O[C@H]1CN(C)S(=O)(=O)c1ccc(Cl)cc1	-22.9% (inactive)
COc1ccc(S(=O)(=O)N(C)C[C@@H]2Oc3c(NS(=O)(=O)c4ccc(C)cc4)cccc3C(=O)N([C@@H](C)CO)C[C@H]2C)cc1	-5.68% (inactive)
Cc1ccc(S(=O)(=O)N(C)C[C@@H]2Oc3c(NC(=O)Nc4ccccc4)cccc3C(=O)N([C@H](C)CO)C[C@H]2C)cc1	11.6% (inactive)
COc1ccc(S(=O)(=O)N(C)C[C@@H]2Oc3c(NC(=O)Nc4cccc5ccccc45)cccc3C(=O)N([C@H](C)CO)C[C@@H]2C)cc1	3.88% (inactive)
COc1ccc(S(=O)(=O)N(C)C[C@@H]2Oc3c(NS(C)(=O)=O)cccc3C(=O)N([C@@H](C)CO)C[C@H]2C)cc1	-4.1% (inactive)
C[C@H]1CN([C@@H](C)CO)C(=O)c2cccc(NC(=O)NC3CCCCC3)c2O[C@@H]1CN(C)S(C)(=O)=O	3.92% (inactive)
COc1ccc(S(=O)(=O)N(C)C[C@@H]2Oc3c(NC(=O)c4cc(C)nn4C)cccc3C(=O)N([C@@H](C)CO)C[C@H]2C)cc1	-2.17% (inactive)
